Data reported in ChEMBL document CHEMBL1127360, “Antipodal alpha-N-(methyl through decyl)-N-normetazocines (5,9 alpha-dimethyl-2'-hydroxy-6,7-benzomorphans): in vitro and in vivo properties” (J Med Chem, 1994).
The source made the active and inactive calls. The calls are words filed in the database; no cut-off is given here.

How the values were obtained:
Mus musculus [1] = assay: Compound was tested in vivo for its narcotic antagonistic activity of the antinociceptive effect in mouse; format: functional
Glutamate NMDA receptor = assay: Inhibition using [3H]TCP in homogenate of rat brain; format: tissue-based
Mus musculus [2] = assay: In vivo antinociceptive activity at 1 mg/kg was tested through hot plate (HP) by placing mouse on hot plate, and calculating number of times it jumps or licks its paw in 5 seconds; format: functional
Mus musculus [3] = assay: (§1) In vivo antinociceptive activity was tested through tail flick (TF) with this compound in mouse; format: functional, organism-based
Mus musculus [4] = assay: In vivo antinociceptive activity at 30 mg/kg was tested through hot plate (HP) by placing mouse on hot plate, and calculating number of times it jumps or licks its paw in 5 seconds; format: functional
Mus musculus [5] = assay: In vivo antinociceptive activity at 10 mg/kg was tested through hot plate (HP) by placing mouse on hot plate, and calculating number of times it jumps or licks its paw in 5 seconds; format: functional
Mu-type opioid receptor = Mu-type opioid receptor (Rattus norvegicus, UniProt P33535); assay: Inhibition against mu receptor using [3H]DAMGO in homogenate of rat brain cerebellum; format: tissue-based
Mu-type opioid receptor, sequence (P33535 whole entry): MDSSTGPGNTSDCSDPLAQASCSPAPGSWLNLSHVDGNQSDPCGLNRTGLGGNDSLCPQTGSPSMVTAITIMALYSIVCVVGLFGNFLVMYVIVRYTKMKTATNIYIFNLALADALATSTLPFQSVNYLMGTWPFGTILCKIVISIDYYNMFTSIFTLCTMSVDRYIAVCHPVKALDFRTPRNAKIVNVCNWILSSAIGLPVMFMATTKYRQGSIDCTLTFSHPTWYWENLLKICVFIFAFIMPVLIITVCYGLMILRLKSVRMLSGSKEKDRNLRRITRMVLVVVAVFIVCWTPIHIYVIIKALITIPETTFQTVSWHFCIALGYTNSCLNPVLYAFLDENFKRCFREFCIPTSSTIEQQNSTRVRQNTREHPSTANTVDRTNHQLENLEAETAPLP

Mus musculus [6] = assay: In vivo antinociceptive activity was tested through injecting 2 mg/kg ip phenylquinone, activity calculated by total number of abdominal-stretches; format: functional, Abdomen; details: route intraperitoneal
Mus musculus [7] = assay: In vivo antinociceptive activity at 30 mg/kg was tested through injecting 2 mg/kg ip phenylquinone, activity calculated by total number of abdominal-stretches per group counted over a 1 min period; format: functional
Mus musculus [8] = assay: In vivo antinociceptive activity was tested through hot plate (HP) and counting jumps or paw licks; format: functional, organism-based
[9] = target: T1, Glutamate NMDA receptor (Rattus norvegicus) (UniProt P35439+Q00959+Q00960+Q00961+Q62645+Q8VHN2+Q9R1M7); assay: Ratio of potencies against PCP receptor to that of Mu receptor of rat; format: protein-complex assay
Mus musculus [10] = assay: In vivo for its narcotic antagonistic activity of the antinociceptive effect in mouse; format: functional, organism-based
Cercopithecidae = assay: Ratio of potencies against Mu receptor of monkey to that of rat
Cavia porcellus [11] = species on record: Cavia porcellus; assay: Ratio of potencies against sigma receptor to that of Mu receptor of rat
[12] = target: Mu-type opioid receptor (Homo sapiens) (UniProt P35372); assay: Ratio of potencies against Mu receptor to that of kappa receptor of monkey; details: Cercopithecidae; target entry is the homologue from another species
Mu-type opioid receptor (Homo sapiens), sequence (P35372 whole entry): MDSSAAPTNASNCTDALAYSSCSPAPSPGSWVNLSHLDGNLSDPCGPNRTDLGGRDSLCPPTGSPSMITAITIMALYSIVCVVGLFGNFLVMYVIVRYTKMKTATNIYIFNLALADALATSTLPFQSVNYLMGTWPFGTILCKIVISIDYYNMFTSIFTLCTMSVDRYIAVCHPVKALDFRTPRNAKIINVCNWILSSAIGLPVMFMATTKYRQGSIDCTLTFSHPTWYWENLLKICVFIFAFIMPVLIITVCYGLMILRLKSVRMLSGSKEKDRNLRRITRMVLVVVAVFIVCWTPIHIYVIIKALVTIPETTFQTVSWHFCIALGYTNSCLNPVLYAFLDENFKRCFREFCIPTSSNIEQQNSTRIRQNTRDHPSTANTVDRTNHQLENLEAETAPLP

Cavia porcellus [13] = species on record: Cavia porcellus; assay: Ratio of potencies against PCP receptor to that of sigma receptor
[14] = target: Kappa-type opioid receptor (Homo sapiens) (UniProt P41145); assay: Ratio of potencies of (+) and (-) enantiomers against kappa receptors in monkeys; details: Cercopithecidae; target entry is the homologue from another species
Kappa-type opioid receptor (Homo sapiens), sequence (P41145 whole entry): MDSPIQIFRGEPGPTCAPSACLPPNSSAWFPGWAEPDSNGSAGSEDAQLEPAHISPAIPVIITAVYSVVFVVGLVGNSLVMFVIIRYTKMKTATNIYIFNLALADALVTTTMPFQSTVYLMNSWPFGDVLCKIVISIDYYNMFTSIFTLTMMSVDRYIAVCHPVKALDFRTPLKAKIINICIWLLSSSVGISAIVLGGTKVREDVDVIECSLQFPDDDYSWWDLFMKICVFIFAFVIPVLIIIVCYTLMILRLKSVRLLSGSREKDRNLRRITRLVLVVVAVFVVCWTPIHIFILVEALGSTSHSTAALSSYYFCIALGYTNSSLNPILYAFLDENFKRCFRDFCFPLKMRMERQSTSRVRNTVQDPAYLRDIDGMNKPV

[15] = target: T1, Glutamate NMDA receptor (Rattus norvegicus); assay: Ratio of potencies of (+) and (-) enantiomers against PCP in rats
Mus musculus [16] = assay: In vivo antinociceptive activity through hot plate (HP) by placing mouse on hot plate, and calculating number of times it jumps or licks its paw in 5 seconds; format: functional
[17] = target: Mu-type opioid receptor (Homo sapiens) (UniProt P35372); assay: Ratio of potencies of (+) and (-) enantiomers against Mu receptors in monkeys; details: Cercopithecidae; target entry is the homologue from another species
[18] = target: Mu-type opioid receptor (Rattus norvegicus) (UniProt P33535); assay: Ratio of potencies of (+) and (-) enantiomers against Mu receptors in Rats
Mu-type opioid receptor (Rattus norvegicus), sequence (P33535 whole entry): as the sequence (P33535 whole entry) above

Mus musculus [19] = assay: as §1; format: functional; set-up: unit not given beside the values
Mus musculus [20] = assay: In vivo antinociceptive activity through injecting 2 mg/kg ip phenylquinone, activity calculated by total number of abdominal-stretches per group counted over a 1 min period; Inactive; format: functional, organism-based; set-up: dose 2 mg/kg
[21] = target: Sigma non-opioid intracellular receptor 1 (Homo sapiens, UniProt Q99720); assay: Binding affinity against sigma receptor was determined
Sigma non-opioid intracellular receptor 1, sequence (Q99720 whole entry): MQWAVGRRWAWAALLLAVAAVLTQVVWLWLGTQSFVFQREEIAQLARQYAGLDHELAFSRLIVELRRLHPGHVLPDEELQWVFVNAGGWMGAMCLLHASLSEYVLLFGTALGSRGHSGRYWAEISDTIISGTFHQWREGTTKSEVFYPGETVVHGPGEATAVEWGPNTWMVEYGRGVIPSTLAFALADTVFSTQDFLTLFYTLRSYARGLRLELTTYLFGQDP

Mus musculus [22] = assay: In vivo antinociceptive activity was tested through tail flick (TF) with this compound in mouse at 30 mg/kg concentration; format: functional
Mus musculus [23] = assay: In vivo antinociceptive activity at 20 mg/kg was tested through injecting 2 mg/kg ip phenylquinone, activity calculated by total number of abdominal-stretches per group counted over a 1 min period; format: functional
Mus musculus [24] = assay: Compound was tested in vivo for its narcotic antagonistic activity of the antinociceptive effect in mouse at 30 mg/kg; format: functional

Row | SMILES | Ki (Glutamate NMDA receptor) | Activity (Mus musculus [3]) | Ki (Mu-type opioid receptor) | Activity (Mus musculus [6]) | Activity (Mus musculus [8]) | Ratio [9] | Activity (Mus musculus [10]) | Ratio (Cercopithecidae) | Ratio (Cavia porcellus [11]) | Ratio [12] | Ratio (Cavia porcellus [13]) | Ratio [14] | Ratio [15] | Activity (Mus musculus [16]) | Ratio [17] | Ratio [18] | Activity (Mus musculus [19]) | other results
1 | CCN1CC[C@]2(C)c3cc(O)ccc3CC1[C@@H]2C | 1870 nM | inactive | 32 nM | 1.4 | – | – | – | – | – | – | – | – | – | – | – | – | – | Activity (Mus musculus [1]): 3.7; inhibition in vivo at 1 mg/kg (Mus musculus [2]): 13%; inhibition in vivo at 30 mg/kg (Mus musculus [4]): 25%; inhibition in vivo at 10 mg/kg (Mus musculus [5]): 25%
2 | CCCCN1CC[C@@]2(C)c3cc(O)ccc3CC1[C@H]2C | 893 nM | inactive | 2880 nM | – | inactive | 0.3 | inactive | 0.4 | 0.002 | 0.6 | 149 | – | – | – | – | – | – | Inhibition (Mus musculus [7]): 43%
3 | CCCCCCCCN1CC[C@]2(C)c3cc(O)ccc3CC1[C@@H]2C | 7970 nM | – | 30 nM | 0.5 | – | 266 | inactive | 2 | 1.2 | 1.3 | 228 | 29 | 0.1 | 5.4 | 2.7 | 17 | 10.3 | –
4 | CCN1CC[C@@]2(C)c3cc(O)ccc3CC1[C@H]2C | 130 nM | inactive | 10000 nM | 33.5 | inactive | – | inactive | – | – | – | – | – | – | – | – | – | – | –
5 | CCCCCN1CC[C@@]2(C)c3cc(O)ccc3CC1[C@H]2C | 1700 nM | – | 1740 nM | 1 | – | – | inactive | – | – | – | – | – | – | 38 | – | – | 20.4 | –
6 | CCCCN1CC[C@]2(C)c3cc(O)ccc3CC1[C@@H]2C | 613 nM | inactive | 13 nM | – | inactive | 47 | – | 0.3 | 8 | 1.4 | 5.9 | 160 | 1.5 | – | 365 | 221 | – | Inhibition (Mus musculus [7]): 40%; Activity (Mus musculus [1]): 1.5
7 | CCCCCCN1CC[C@]2(C)c3cc(O)ccc3CC1[C@@H]2C | 3350 nM | – | 4.7 nM | 0.13 | – | 712 | inactive | 8.3 | 8.5 | 1.1 | 84 | 53 | 2.2 | 2.4 | 8.2 | 169 | 1.1 | –
8 | CCCCCCCCCCN1CC[C@]2(C)c3cc(O)ccc3CC1[C@@H]2C | 10000 nM | inactive | 507 nM | – | inactive | 20 | inactive | 2 | 0.08 | 2.3 | 263 | 1 | 0.4 | – | 0.8 | 9.1 | – | Activity (Mus musculus [20]): inactive
9 | CCCCCN1CC[C@]2(C)c3cc(O)ccc3CC1[C@@H]2C | 2470 nM | – | 16 nM | 0.2 | – | – | inactive | – | – | – | – | – | – | 2.4 | – | – | 1.3 | –
10 | CCCCCCN1CC[C@@]2(C)c3cc(O)ccc3CC1[C@H]2C | 7300 nM | – | 795 nM | 5.6 | inactive | 9.2 | inactive | 0.4 | 0.003 | 7.1 | 3180 | – | – | – | – | – | 21.3 | –
11 | CCCCCCCN1CC[C@]2(C)c3cc(O)ccc3CC1[C@H]2C | 2570 nM | – | 243 nM | 3.5 | – | 11 | inactive | 1.1 | 0.008 | 2.8 | 1350 | – | – | 11.5 | – | – | 12.9 | –
12 | CCCN1CC[C@]2(C)c3cc(O)ccc3CC1[C@@H]2C | 264 nM | inactive | 7.6 nM | 22 | inactive | 35 | – | 0.2 | 97 | 1.3 | 0.4 | 226 | 2.3 | – | 629 | 687 | – | Activity (Mus musculus [1]): 0.4
13 | CCCCCCCCCCN1CC[C@]2(C)c3cc(O)ccc3CC1[C@H]2C | 4190 nM | inactive | 4620 nM | – | inactive | 0.9 | inactive | 0.2 | 0.02 | 3 | 61 | – | – | – | – | – | – | Activity (Mus musculus [20]): inactive
14 | C=CCN1CCC2c3cc(O)ccc3CC1C2C (single isomer, unassigned; (-)) | – | – | – | – | – | – | – | – | – | – | – | – | – | – | – | – | – | Ki [21]: 4300 nM
15 | CCCCCCCCN1CC[C@]2(C)c3cc(O)ccc3CC1[C@H]2C | 786 nM | – | 522 nM | 7.8 | – | 1.5 | inactive | 0.3 | 0.005 | 14.2 | 281 | – | – | 11.1 | – | – | – | inhibition in vivo at 30 mg/kg (Mus musculus [22]): 14%
16 | CCCCCCCN1CC[C@]2(C)c3cc(O)ccc3CC1[C@@H]2C | 5630 nM | – | 8.8 nM | 0.13 | – | 640 | inactive | 3.1 | 5.6 | 1.2 | 115 | 23 | 0.5 | 2.4 | 9.6 | 28 | 1.7 | –
17 | C=CCN1CC[C@]2(C)c3cc(O)ccc3CC1[C@@H]2C (single isomer, unassigned; (+)) | – | – | – | – | – | – | – | – | – | – | – | – | – | – | – | – | – | Ki [21]: 124 nM
18 | CCCCCCCCCN1CC[C@]2(C)c3cc(O)ccc3CC1[C@@H]2C | 6170 nM | inactive | 151 nM | – | inactive | 41 | inactive | 1.2 | 0.2 | 3.9 | 193 | 3.2 | 0.7 | – | 0.7 | 9.1 | – | Activity (Mus musculus [20]): inactive
19 | C[C@H]1C2Cc3ccc(O)cc3[C@@]1(C)CCN2C | 1190 nM | – | 11 nM | 0.3 | – | 108 | inactive | 0.4 | 1640 | 4 | 0.07 | 222 | 0.03 | 0.6 | 328 | 452 | 0.8 | –
20 | C[C@H]1C2Cc3ccc(O)cc3[C@@]1(C)CCN2 | 197 nM | – | 23 nM | – | – | – | inactive | – | – | – | – | – | – | – | – | – | – | Inhibition (Mus musculus [7]): 66%; inhibition in vivo at 30 mg/kg (Mus musculus [22]): 13%; inhibition in vivo at 30 mg/kg (Mus musculus [4]): 38%
21 | CCCCCCCCCN1CC[C@]2(C)c3cc(O)ccc3CC1[C@H]2C | 4150 nM | inactive | 1380 nM | – | inactive | 3 | inactive | 0.1 | 0.009 | 18 | 346 | – | – | – | – | – | – | Activity (Mus musculus [20]): inactive
22 | C[C@@H]1C2Cc3ccc(O)cc3[C@]1(C)CCN2C | 41 nM | inactive | 4970 nM | – | inactive | 0.008 | – | 0.3 | 0.3 | 2.7 | 0.03 | – | – | – | – | – | – | Inhibition (Mus musculus [23]): 43%
23 | CCCN1CC[C@@]2(C)c3cc(O)ccc3CC1[C@H]2C | 606 nM | inactive | 5220 nM | – | inactive | 0.1 | – | 0.2 | 0.008 | 0.5 | 14.1 | – | – | – | – | – | – | inhibition in vivo at 30 mg/kg (Mus musculus [24]): 20%; Activity (Mus musculus [20]): inactive
